Reference: US5516797A, “Immunosuppressive compounds” (Vertex Pharmaceuticals, Incorporated, priority 1994, dated 1996)

Columns and labels:
[1] = target: T1, FK-506 binding protein (FKBP) (Homo sapiens, UniProt P62942); assay: Competitive binding to FKBP against [3H]dihydro-FK-506 (apparent Kd); conditions: competition with [3H]dihydro-FK-506
[2] = target: T1, FK-506 binding protein (FKBP); assay: Inhibition of PPIase (rotamase) enzyme activity of FKBP (apparent Ki); format: biochemical; conditions: substrate N-succinylAla-Ala-Pro-Phe-p-nitroanilide, chymotrypsin-coupled
From the text: The inhibition of the PPIase (rotamase) enzyme activity of the FKBP (apparent "Ki" values) can also be measured according to the methods described by either Harding, M. W. et al., Nature 341:758-760 (1989) or Siekierka, J. J. et al., Nature 341:755-757 (1989). The cis-trans isomerization of the proline-alanine peptide bond in a model substrate, N-succinylAla-Ala-Pro-Phe-p-nitroanilide, is monitored spectrophotometrically in a coupled assay with chymotrypsin, which releases 4-nitroanilide from the trans form of the substrate. Fischer, G. et al., Nature 337:476-478 (1989). The inhibitory effect of the addition of different concentrations of inhibitor on the extent of the reaction is determined, and analysis of the change in first order rate constant as a function of inhibitor concentration yields an estimate of the apparent Ki value.

T1 sequence (P62942 whole entry): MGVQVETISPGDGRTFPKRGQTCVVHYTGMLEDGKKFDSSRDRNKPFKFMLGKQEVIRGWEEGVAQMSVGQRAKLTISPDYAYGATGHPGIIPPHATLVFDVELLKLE

SMILES | Kd [1] [µM] | Ki [2] [µM]
COC(=O)C(=O)N1CCCC[C@H]1C(=O)OCCCC1CCCCC1 [Compound 33] | 12 | 
O=C(C(=O)N1CCCC[C@H]1C(=O)OCc1ccccc1)c1ccc(F)cc1 [Compound 14] | 10 | 4
C[C@@H](OC(=O)[C@@H]1CCCCN1C(=O)C(=O)c1ccccc1)c1ccccc1 [Compound 51] | 1 | 1.5
C=CCOC(=O)[C@@H]1CCCCN1C(=O)C(=O)OC [Compound 30] | > 25 | 190
COC(=O)C(=O)N1CCCC[C@H]1C(=O)OC/C(C)=C/[C@H]1CC[C@@H](O)CC1 [Compound 39] | > 20 | 70
COc1cccc(C(=O)C(=O)N2CCC[C@H]2C(=O)OCc2ccccc2)c1 [Compound 42] | 80 | 5
O=C(OCc1ccccc1)[C@@H]1CCCN1C(=O)/C=C/c1ccc2c(c1)OCO2 [Compound 109, (S)-3-(3,4-Methylenedioxyphenyl)-prop-2-enoylproline benzyl ester] | > 15 | 3
O=C(OCc1ccccc1)[C@@H]1CCCCN1C(=O)C(=O)C1(O)CCCCO1 (stereo partly drawn) [Compound 50] | 0.35 | 12
COc1cc(/C=C/C(=O)N2CCC[C@H]2C(=O)OCc2ccccc2)cc(OC)c1OC [Compound 115] | > 25 | 450
CC(C)(C)/C=C/C(=O)C(=O)N1CCCC[C@H]1C(=O)OCc1ccccc1 [Compound 54] | 3 | 9
CC(C)(C)OC(=O)[C@@H]1CCCN1C(=O)C(=O)c1ccco1 [Compound 19] | > 500 | 200
COC(=O)C(=O)N1CCCC[C@H]1C(=O)OCCC1CCCCC1 [Compound 32] | > 40 | 45
CCN(C(=O)C(=O)OC)[C@@H](C)C(=O)OC(C)(C)C [Compound 128] | > 500 | > 400
COC(=O)C(=O)N(C)[C@H](C(=O)OCc1ccccc1)C(C)C [Compound 126] | > 200 | 170
COc1cc(OC)cc(C(=O)C(=O)N2CCCC[C@H]2C(=O)OCc2ccccc2)c1 [Compound 11] | 0.6 | 2
O=C(C(=O)N1CCCC[C@H]1C(=O)OCc1ccccc1)c1c[nH]c2ccccc12 [Compound 21] | 20 | 25
O=C(OCc1ccccc1)[C@@H]1CCCCN1C(=O)/C=C/c1ccc([N+](=O)[O-])cc1 [Compound 117] | > 5 | 14
COc1ccc(/C=C/C(=O)N2CCC[C@H]2C(=O)OCc2ccccc2)cc1 [Compound 111] | > 30 | 6
COc1ccc(/C=C/C(=O)N(C)[C@@H](C)C(=O)OCc2ccccc2)cc1 [Compound 129, (S)-N-3-(4-methoxyphenyl)-prop-2-enoyl-N-methylalanine benzyl ester] | > 150 | 80
COC(=O)C(=O)N(C)CC(=O)OCc1ccccc1 [Compound 124] | > 200 | 1000
